According to US6740335B1, “Liposomal camptothecin formulations” (priority 1997, dated 2004):
Counter-ions that a name gives are not always drawn. Like-named read-outs stand apart in the source and are kept apart here.

Tests used:
[1] = Plasma pharmacokinetics in mice, routes of administration; format: in vivo; settings: for Vd: read-out: Vss
Protocol: Pharmacokinetic studies were carried out on various liposomal formulations of GI147211 in rats and mice by IV bolus administration. Plasma samples were precipitated with acetonitrile and the supematant for each sample was analyzed by reverse phase HPLC using isocratic elution and monitoring fluorescence. […] Concentration values were determined for unknown samples and quality control samples based on interpolation using a linear fit of the standard samples. In each study the average plasma concentration at each time point was calculated and utilized in the pharmacokinetic analysis. Noncompartmental analysis were carried out using WinNonlin™ (Standard Edition, version 1.5 ©, Scientific Consulting, Inc.) and the following parameters were calculated: the maximum concentration extrapolated at zero time (Cmax), the area under the curve from zero to infinite time (AUC total), the terminal phase half life (t½), the clearance rate (C1), and the volume of distribution at steady state (Vss).
Animals received a 1 mg/kg dose by intravenous (I.V.) intraperatoneal (I.P.) or subcutaneous administration and plasma samples were collected over 24 hours.

[2] = tested on: HT-29 (Colon); test: 3H-thymidine incorporation cytotoxicity assay, HT-29; format: cell-based, human; settings: Homo sapiens, HT-29, 42 h; read-out: Median IC50
Protocol: (§1) In vitro efficacy screening has been performed using GI147211 and liposomal formulations of GI147211. […] Standard tumor cell-based cytototoxicity assays assessing ^3H-thymidine incorporation were performed.
(§2) Tumor cells were seeded into 96-well tissue culture plates (1×10^4 cells/well)≡4 h prior to experimentation. […] Positive and negative (Tris treated) control groups were included on each assay plate. Tumor cells were then labeled with 0.25 μCi of [methyl-^3H] thymidine and incubated for 42 h under tissue culture conditions (37° C., 5% CO2, 100% relative humidity), except for C6, U251, A673 and B16-F1 cells which were incubated for 24 h. Cells were then lysed, harvested onto glass-fiber filters and unincorporated [methyl-^3H] thymidine removed by filter washing. Filters were processed for scintillation counting and cpm-^3H/well determined. […] Data are presented from multiple sets of experimentation, involving multiple liposomal formulations of GI147211.

[3] = tested on: KB Tumor Xenograft; test: HSPC vs DSPC liposomal GI147211 repeat-dose study, KB xenograft; format: in vivo, nude mice; settings: 14 mg/kg iv, two drug doses
From the text: On a day 1 and day 8 dose schedule and after two weeks rest the same cycle of therapy was repeated with doses delivered on day 23 and day 30.

[4] = tested on: LOX (melanoma); test: 3H-thymidine incorporation cytotoxicity assay, LOX; format: cell-based, human; settings: Homo sapiens, 42 h, read-out: Median IC50
Protocol: as §1, §2

[5] = tested on: B16-F1 (Melanoma, murine); test: 3H-thymidine incorporation cytotoxicity assay, B16-F1; format: cell-based; settings: Mus musculus, B16-F1, 24 h; read-out: Median IC50
Protocol: as §1, §2

[6] = tested on: ES-2 (ovarian carcinoma); test: 3H-thymidine incorporation cytotoxicity assay, ES-2; format: cell-based, human; settings: Homo sapiens; ES-2, 42 h; read-out: Median IC50
Protocol: as §1, §2

[7] = tested on: KB Head/Neck Tumor; test: Xenograft efficacy at identical dose, KB; format: in vivo, nude mice; settings: for Log 10 Cell Kill / T-C (time to reach 1,000% Tumor Volume, treated vs control): QD7 × 3; for % TGI: QD7 × 3, day 22
Protocol: (§3) In all the studies performed, subcutaneous tumors implanted on the anterior flank of nude mice were allowed to grow to an established size of 200+/−50 mm^3 prior to dosing drugs.
(§4) The xenograft models included the HT29 and SW48 human colon tumor lines, and the KB and KBV head-neck tumors. Drugs were dosed at either 6 or 9 mg/kg intravenously, on a weekly schedule for 3 consecutive weeks. In the SW48 xenograft study, the animals received a total of two cycles of therapy (6 injections), with a 10 day recovery period separating the two therapeutic courses. In the HT29 xenograft study a 12 and 14 mg/kg dose group was added.

[8] = tested on: MCF-7 (Breast); test: 3H-thymidine incorporation cytotoxicity assay, MCF-7; format: cell-based, human; settings: Homo sapiens, MCF7; MCF-7, 42 h; read-out: Median IC50
Protocol: as §1, §2

[9] = tested on: U937 (Lymphoma); test: 3H-thymidine incorporation cytotoxicity assay, U937; format: cell-based, human; settings: Homo sapiens, U-937; U937, 42 h; read-out: Median IC50
Protocol: as §1, §2

[10] = tested on: LS-513 (Cecum); test: 3H-thymidine incorporation cytotoxicity assay, LS-513; format: cell-based, human; settings: Homo sapiens, LS-513, 42 h; read-out: Median IC50
Protocol: as §1, §2

[11] = tested on: U251 (Glioblastoma); test: 3H-thymidine incorporation cytotoxicity assay, U251; format: cell-based, human; settings: Homo sapiens, U-251; U251, 24 h; read-out: Median IC50
Protocol: as §1, §2

[12] = tested on: SW48 human colon tumor; test: Xenograft efficacy at identical dose, SW48; format: in vivo, nude mice; settings: SW48, 9 mg/kg, QD7 × 3, two cycles; for % TGI: day 35, dihydrochloride
Protocol: as §3, §4

[13] = mouse, plasma, iv, 1 mg/kg, 1 mg/kg IV bolus
[14] = mouse, plasma, iv, 1 mg/kg, I.V.

CCC1(O)C(=O)OCc2c1cc1n(c2=O)Cc2c-1nc1cc3c(cc1c2CN1CCN(C)CC1)OCCO3 (stereo in doubt) [GI147211, 7-(4-methylpiperazinomethylene)-10,11-ethylenedioxy-20(S)-camptothecin dihydrochloride]
AUC (total) ([1]; 1 mg/kg IV bolus): 140 ng·h/mL
AUC (total) ([1]; 1 mg/kg, I.P.): 47 ng·h/mL
AUC (total) ([1]; 1 mg/kg, I.V.): 140 ng·h/mL
Cmax ([1]; 1 mg/kg, I.V.): 80 ng/mL
AUC (total) ([1]; 1 mg/kg, Sub. Q): 55 ng·h/mL
Cmax ([1]; mouse, plasma, 1 mg/kg IV bolus, read-out: Cmax): 80 ng/mL
half-life ([1]; mouse, plasma, 1 mg/kg IV bolus, read-out: t½ (converted)): 113 min
Tmax ([1]; mouse, plasma, ip, 1 mg/kg, I.P.): 15 min
Cmax ([1]; mouse, plasma, ip, 1 mg/kg, I.P., read-out: Cmax): 56 ng/mL
clearance [1, 13]: 122 mL/min/kg
Vd [1, 13]: 17.6 L/kg
Tmax [1, 14]: 0 min
clearance [1, 14]: 122 mL/min/kg
Vd [1, 14]: 17.6 L/kg
Tmax ([1]; mouse, plasma, subcutaneous, 1 mg/kg, Sub. Q): 15 min
Cmax ([1]; mouse, plasma, subcutaneous, 1 mg/kg, Sub. Q, read-out: Cmax): 42 ng/mL
IC50 [2]: 0.763 ng/mL
Cures (tumor-free animals at day 60) [3]: 0/8
Log Cell Kill Index [3]: 0.81
T − C (to achieve 400% tumor volume increase) [3]: 13.4
Toxic Deaths [3]: 0/8
% TGI ([3]; day 18): 77.5%
IC50 [4]: 1.41 ng/mL
IC50 [5]: 111 ng/mL
IC50 [6]: 0.489 ng/mL
Log 10 Cell Kill ([7]; 6 mg/kg iv): 0.87
T-C (time to reach 1,000% Tumor Volume, treated vs control) ([7]; 6 mg/kg iv): 9 days
% TGI ([7]; 6 mg/kg iv): 54%
Log 10 Cell Kill ([7]; 9 mg/kg iv): 1.64
T-C (time to reach 1,000% Tumor Volume, treated vs control) ([7]; 9 mg/kg iv): 17 days
% TGI ([7]; 9 mg/kg iv): 73%
IC50 [8]: 44.1 ng/mL
IC50 [9]: 4.22 ng/mL
IC50 [10]: 4.89 ng/mL
IC50 [11]: 3.11 ng/mL
Log 10 Cell Kill [12]: 1.9
T-C (time to reach 1,000% Tumor Volume, treated vs control) [12]: 40 days
% TGI [12]: 86%
% TGI ([12]; listed as free drug): 86%
